Data: patent US10315992B2, “Tetracyline compounds” (Tetraphase Pharmaceuticals, Inc., priority 2012, dated 2019)
Read-outs that look alike come from different tables or passages of the source.

Experiments:
[1] = system: Enterobacter cloacae EC603 (urine isolate); test: MIC assay, EC603; type: cell-based; settings: control compounds
[2] = system: Acinetobacter baumannii AB250 (cystic fibrosis isolate, MDR); test: MIC assay, AB250; type: cell-based; settings: control compounds
[3] = system: Pseudomonas aeruginosa PA1145 (strain used in murine pneumonia model); test: MIC assay, PA1145; type: cell-based; settings: control compounds
[4] = system: Staphylococcus aureus SA158 (tetracycline-resistant tet(K)); test: MIC assay, SA158; type: cell-based
[5] = system: Proteus mirabilis PM112 (ATCC 35659); test: MIC assay, PM112; type: cell-based; settings: ATCC35659, P. mirabilis ATCC 35659, Table 5, read-out: MIC PM 112 35659
[6] = system: Haemophilus influenzae HI262 (tetracycline-resistant, ampicillin-resistant); test: MIC assay, HI262; type: cell-based; settings: H. influenzae tetracycline-resistant, Table 5, read-out: MIC HI 262 33929
[7] = system: Enterobacter cloacae EC108 (ATCC 13047); test: MIC assay, EC108; type: cell-based; settings: ATCC13047, E. cloacae ATCC 13047, Table 4, read-out: MIC ECI 108 13047
[8] = system: Escherichia coli EC107 (ATCC 25922); test: MIC assay, EC107; type: cell-based
[9] = system: Pseudomonas aeruginosa PA669 (2009 tracheal aspirate isolate); test: MIC assay, PA669; type: cell-based; settings: control compounds
[10] = system: Pseudomonas aeruginosa PA555 (ATCC BAA-47, PAO1); test: MIC assay, PA555; type: cell-based
EC 880 ipxC = test: MIC assay, EC880; type: cell-based
Source text: Minimum Inhibitory Concentration (MIC) Assay
The assays were run as follows.

[11] = system: Acinetobacter baumannii AB110 (ATCC 19606); test: MIC assay, AB110; type: cell-based; settings: ATCC19606, A. baumannii ATCC 19606, Table 4, read-out: MIC AB 110 19606
[12] = system: Streptococcus pyogenes SP312 (2009 clinical isolate, tet(M)); test: MIC assay, SP312; type: cell-based; settings: S. pyogenes tet(M)
[13] = system: Moraxella catarrhalis MC205 (ATCC 8176); test: MIC assay, MC205; type: cell-based; settings: ATCC8176, M. catarrhalis ATCC 8176, Table 5, read-out: MIC MC 205 8176
[14] = system: Enterococcus faecalis EF159 (tet(M)); test: MIC assay, EF159; type: cell-based; settings: E. faecalis tet(M), Table 4, read-out: MIC EF 159 tetM
[15] = system: Streptococcus pneumoniae SP160 (tet(M)); test: MIC assay, SP160; type: cell-based
[16] = system: Klebsiella pneumoniae KP153 (tet(A), MDR, ESBL+)
KP 194 7E+05 = test: MIC assay, KP194; settings: Table 5
Protocol: (§1) MICs were determined according to the Clinical and Laboratory Standards Institute (CLSI) guidances (e.g., CLSI. Performance standards for antimicrobial susceptibility testing; nineteenth information supplement. CLSI document M100-S19, CLSI, 940 West Valley Road, Suite 1400, Wayne, Pa. 19087-1898, USA, 2009). Briefly, frozen bacterial strains were thawed and subcultured onto Mueller Hinton Broth (MHB) or other appropriate media (Streptococcus requires blood and Haemophilus requires hemin and NAD). Following incubation overnight, the strains were subcultured onto Mueller Hinton Agar and again incubated overnight. […] Isolated colonies were selected to prepare a starting inoculum equivalent to a 0.5 McFarland standard. […] Test compounds were prepared by dilution in sterile water to a final concentration of 5.128 mg/mL. Antibiotics (stored frozen, thawed and used within 3 hours of thawing) and compounds were further diluted to the desired working concentrations.
(§2) The assays were run as follows. Fifty μL of MHB was added to wells 2-12 of a 96-well plate. One hundred μL of appropriately diluted antibiotics was added to well 1. Fifty μL of antibiotics was removed from well 1 and added to well 2 and the contents of well 2 mixed by pipetting up and down five times. Fifty μL of the mixture in well 2 was removed and added to well 3 and mixed as above. Serial dilutions were continued in the same manner through well 12. Fifty μL was removed from well 12 so that all contained 50 μL. Fifty μL of the working inoculum was then added to all test wells. A growth control well was prepared by adding 50 μL of working inoculum and 50 μL of MHB to an empty well. The plates were then incubated at 37° C. overnight, removed from the incubator and each well was read on a plate reading mirror. The lowest concentration (MIC) of test compound that inhibited the growth of the bacteria was recorded.

[17] = system: Staphylococcus aureus SA161 (HA-MRSA, tet(M)); test: MIC assay, SA161; type: cell-based; settings: S. aureus HA-MRSA, tet(M); Table 5
[18] = system: Enterococcus faecalis EF327 (wound isolate, tet(M)); test: MIC assay, EF327; type: cell-based
[19] = system: Escherichia coli EC155 (tet(A)); test: MIC assay, EC155; type: cell-based
[20] = system: Staphylococcus aureus SA191 (HA-MRSA, tetracycline-resistant); test: MIC assay, SA191; type: cell-based; settings: S. aureus HA-MRSA, tetracycline-resistant, Table 5, read-out: MIC SA 191
PA 884 35151 = test: MIC assay, PA884; settings: Pseudomonas aeruginosa, read-out: MIC PA 884 351 51
Protocol: as §1, §2

[21] = system: Enterococcus faecium EF404 (blood isolate, tet(M)); test: MIC assay, EF404; type: cell-based
[22] = system: Enterococcus faecalis EF103 (ATCC 29212); test: MIC assay, EF103; type: cell-based; settings: ATCC29212, E. faecalis ATCC 29212, Table 4, read-out: MIC EF 103 29212

CN(C)c1ccc(O)c2c1C[C@H]1C[C@H]3[C@H](N(C)C)C(O)=C(C(N)=O)C(=O)[C@@]3(O)C(O)=C1C2=O [Minocycline, minocycline]
0.031 µg/mL: MIC ([4]; S. aureus tet(K), Table 4, read-out: MIC SA 158 tetK)
0.5 µg/mL: MIC ([8]; ATCC25922, E. coli ATCC 25922, Table 6, read-out: MIC EC 107 259 22) | MIC ([8]; ATCC25922, E. coli ATCC 25922, Table 7, read-out: MIC EC 07 25922) | MIC ([8]; ATCC25922, control compounds, numeric, read-out: MIC EC 107 25922)
1 µg/mL: MIC [6] | MIC (PA 884 35151) | MIC [22]
0.063 µg/mL: MIC [11]
8 µg/mL: MIC ([2]; c8, strain AB250 inferred, read-out: MIC) | MIC ([2]; numeric, read-out: MIC AB 250) | MIC [5] | MIC KP 153 tetA [16] | MIC SA 161 tetM [17] | MIC ([19]; Escherichia coli, E. coli tet(A), Table 7, read-out: MIC EC 155 tetA) | MIC EC 155 tetA ([19]; control compounds) | MIC [20] | MIC ([21]; E. faecium tet(M), Table 6, read-out: MIC EF 404 tet M) | MIC ([21]; control compounds, numeric, read-out: MIC EF 404 tetM)
32 μg/mL: MIC KP 194 7E+05 (KP 194 7E+05)
16 µg/mL: MIC ([10]; P. aeruginosa ATCC BAA-47 PAO1, Table 5, read-out: MIC PA 555) | MIC ([10]; P. aeruginosa ATCC BAA-47 PAO1, Table 6, read-out: MIC PA5 55 BAA- 47) | MIC ([10]; P. aeruginosa ATCC BAA-47 PAO1, Table 7, read-out: MIC PA 555 BAA- 47) | MIC ([10]; control compounds, c1, strain PA555 inferred, read-out: MIC) | MIC ([10]; control compounds, numeric, read-out: MIC PA 555 BAA-47) | MIC ([12]; Table 5, read-out: MIC SP 312) | MIC ([12]; Table 6, read-out: MIC SP 312 tet M) | MIC [14]
0.015 µg/mL: MIC (EC 880 ipxC; Table 6, read-out: MIC EC 880 ipx C)
0.03 µg/mL: MIC ([4]; S. aureus tet(K), Table 5, read-out: MIC SA 158 tetK) | MIC ([4]; S. aureus tet(K), Table 6, read-out: MIC SA 158 tetK) | MIC ([4]; S. aureus tet(K), Table 7, read-out: MIC SA 158 tetK) | MIC ([4]; control compounds, numeric, read-out: MIC SA 158 tetK) | MIC ([4]; control compounds, read-out: MIC SA 158 tetK)
33 µg/mL: MIC ([1]; c7, strain EC603 inferred, read-out: MIC) | MIC ([1]; numeric, read-out: MIC EC 603 tetA) | MIC ([3]; c6, strain PA1145 inferred, read-out: MIC) | MIC ([9]; c4, strain PA669 inferred, read-out: MIC) | MIC ([9]; numeric, read-out: MIC PA 669)
0.02 µg/mL: MIC (EC 880 ipxC; Table 7, read-out: MIC EC 880 ipxC) | MIC [13]
2 µg/mL: MIC [7] | MIC ([15]; S. pneumoniae tet(M), Table 6, read-out: MIC SP 160 tet M) | MIC ([15]; control compounds, numeric, read-out: MIC SP 160 tetM)
32 µg/mL: MIC ([3]; numeric, read-out: MIC PA 1145) | MIC ([18]; E. faecalis tet(M), Table 6, read-out: MIC EF 327 tet M) | MIC ([18]; control compounds, numeric, read-out: MIC EF 327 tetM)
